Bounds are passed on as bounds.

Chain of human IDO1 (P14902 whole entry): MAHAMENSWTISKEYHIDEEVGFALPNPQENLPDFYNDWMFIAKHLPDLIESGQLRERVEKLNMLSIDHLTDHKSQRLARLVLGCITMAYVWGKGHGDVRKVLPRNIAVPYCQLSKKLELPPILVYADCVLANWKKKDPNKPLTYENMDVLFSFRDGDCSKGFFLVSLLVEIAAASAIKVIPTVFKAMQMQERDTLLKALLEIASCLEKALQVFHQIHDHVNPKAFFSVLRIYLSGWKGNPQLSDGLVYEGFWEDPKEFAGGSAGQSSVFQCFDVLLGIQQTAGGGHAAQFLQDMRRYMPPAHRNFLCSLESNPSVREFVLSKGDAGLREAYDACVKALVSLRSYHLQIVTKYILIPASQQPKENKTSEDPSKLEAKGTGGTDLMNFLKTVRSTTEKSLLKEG

The target of this assay is human IDO1 (Homo sapiens, UniProt P14902). Briefly: Assessment of human IDO-1 inhibitory activity in Hela cells (Interferon-gamma stimulated HeLa cells, Ehrlich reagent, absorbance 490 nm). Conditions: Hela Human IDO-1 cellular assay. The class given is cell-based. On the set-up: endogenous in cells; host or cells: HeLa cells stimulated with interferon-gamma. The method, boiled down:
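HeLa cells pre-incubated with compound 1 h at 37 °C, then stimulated with human IFN-γ (10 ng/ml final) or murine IFN-γ (5 ng/ml final) for 18 h. Kynurenine read with Ehrlich reagent at 490 nm after TCA (3%) and 50 °C treatment; IC50 normalized to unstimulated (100%) and IFN-γ-only (0%) wells.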
The IC50 is the concentration at which inhibition is half-maximal. As for `CCC(CC(=O)O)c1ccc(N2CCC(C)CC2)c(Nc2cnc(OC)nc2)c1` (single isomer, unassigned) [Example 42, 3-(3-((2-methoxypyrimidin-5-yl)amino)-4-(4-methylpiperidin-1-yl)phenyl)pentanoic acid], the IC50 is > 50 nM.

Take `CCN(c1ccc(C(CC)(CC)CC(=O)O)cc1Nc1cnc(OC)nc1)C1CCOCC1` [Example 28, 3-ethyl-3-(4-(ethyl(tetrahydro-2H-pyran-4-yl)amino)-3-((2-methoxypyrimidin-5-yl)amino)phenyl)pentanoic acid]: the IC50 is < 50 nM.

As for `CCC(CC(=O)O)c1cc(F)c(N(CC)C2CCOCC2)c(Nc2ccc(C#N)cn2)c1` (single isomer, unassigned) [Example 138, 3-(3-((5-cyanopyridin-2-yl)amino)-4-(ethyl (tetrahydro-2H-pyran-4-yl)amino)-5-fluorophenyl) pentanoic acid], the IC50 was < 5 nM.

In the case of `COCCN(c1ccc(C(C)(C)CC(=O)O)cc1Nc1ccc(Cl)cc1)C1CCOCC1` [Example 15, 3-(3-((4-Chlorophenyl)amino)-4-((2-methoxyethyl)(tetrahydro-2H-pyran-4-yl)amino)phenyl)-3-methylbutanoic acid], the IC50 is < 5 nM.

For the compound `CCN(c1ccc([C@@H](COC)CC(=O)O)cc1Nc1ccc(C#N)c(C(F)(F)F)c1)C1CCOCC1` (single isomer, unassigned) [Example 383], the IC50 was > 50 nM.

As for `CCC(CC(=O)O)c1ccc(N(C)C2CCOCC2)c(Nc2cnc(OC)nc2)c1` (single isomer, unassigned) [Example 868, 3-(3-((2-methoxy-pyrimidin-5-yl)amino)-4-(methyl (tetrahydro-2H-pyran-4-yl)amino)phenyl) pentanoic acid], the IC50 is < 50 nM.

With `C[C@@H]1CN(c2ccc(C(CC(=O)O)C3CC3)cc2Nc2ccc(C#N)cc2)C[C@H](C)O1` (single isomer, unassigned) [Example 247], the IC50 is > 50 nM.

As to `CCOc1ncc(Nc2cc(C(CC)CC(=O)O)ccc2N2CCC(c3ccccc3)CC2)cn1` (single isomer, unassigned) [Example 47 Enantiomer 1, 3-(3-((2-Ethoxypyrimidin-5-yl)amino)-4-(4-phenylpiperidin-1-yl)phenyl)pentanoic acid], the IC50 was < 5 nM.

`CCC(CC(=O)O)c1ccc(N(CC)C2CCOC2)c(NC(=O)Nc2ccc(Cl)cc2F)c1` (single isomer, unassigned) [948 D2]: the IC50 is < 50 nM.

As for `CCC1COCCN1c1ccc([C@H](COC)CC(=O)O)cc1Nc1ccc(Cl)cc1` (single isomer, unassigned) [Example 1292], the IC50 was < 50 nM.

With `CCOc1ncc(Nc2cc([C@@H](COC)CC(=O)O)ccc2N2CCOCC2CC)cn1` (single isomer, unassigned) [Example 1285], the IC50 is > 50 nM.

For the compound `CCC(CC(=O)O)c1cc(F)c(N(CC)C2CCOCC2)c(Nc2cnc(OCC3CC3)nc2)c1` (single isomer, unassigned) [Example 136, 3-(3-((2-(cyclopropylmethoxy)pyrimidin-5-yl)amino)-4-(ethyl(tetrahydro-2H-pyran-4-yl)amino)-5-fluorophenyl)pentanoic acid], the IC50 was < 50 nM.

As for `CCN(c1ccc(C(CC(=O)O)C2CC2)cc1NC(=O)Nc1ccc(C#N)cc1)C1CCOCC1` (single isomer, unassigned) [Example 255 Enantiomer 1, 3-(3-(3-(4-Cyanophenyl)ureido)-4-(ethyl(tetrahydro-2H-pyran-4-yl)amino)phenyl)-3-cyclopropylpropanoic acid], the IC50 was > 50 nM.

For `CCN(c1ccc(C(C)CC(=O)O)cc1Nc1ccc(C#N)cc1)C1CCOCC1` (single isomer, unassigned) [Example 625, 3-(3-((4-cyanophenyl)amino)-4-(ethyl(tetrahydro-2H-pyran-4-yl)amino)phenyl)butanoic acid], the IC50 is < 5 nM.

`COCCN(c1ccc(C(C)(C)CC(=O)O)cc1NC(=O)Nc1ccc(C)cc1)C1CCOCC1` [Example 18, 3-(4-((2-Methoxyethyl)(tetrahydro-2H-pyran-4-yl)amino)-3-(3-(p-tolyl)ureido)phenyl)-3-methylbutanoic acid]: the IC50 is > 50 nM.

With `CCOc1ncc(Nc2cc([C@@H](CC(=O)O)C(F)(F)F)ccc2N(CC)C2CCOCC2)cn1` [Example 600, (R)-3-(3-((2-Ethoxypyrimidin-5-yl)amino)-4-(ethyl(tetrahydro-2H-pyran-4-yl)amino)phenyl)-4,4,4-trifluorobutanoic acid], the IC50 was < 5 nM.

`CCCN(c1ccc([C@H](CC)CC(=O)O)cc1Nc1ccc2nc(C)sc2c1)C1CCOCC1` (single isomer, unassigned) [Example 548]: the IC50 was < 50 nM.

For the compound `COCC(CC(=O)O)c1ccc(N2CCOC[C@H]2C(C)C)c(Nc2ccc(C#N)cc2)c1` (single isomer, unassigned) [Example 912], the IC50 was < 5 nM.

For `CCC(CC(=O)O)c1ccc(N(CC)C2CCOC2)c(NC(=O)Nc2ccc(Cl)cc2F)c1` (single isomer, unassigned) [Example 946 D1, 3-(3-(3-(4-Chloro-2-fluorophenyl)ureido)-4-(ethyl(tetrahydrofuran-3-yl)amino)phenyl)pentanoic acid], the IC50 was < 50 nM.

Turning to `CCOc1ncc(Nc2cc([C@H](CC)Cc3nnn[nH]3)ccc2N(CC)C2CCOCC2)cn1` [Example 1339, (R)-4-(1-(1H-Tetrazol-5-yl)butan-2-yl)-N2-(2-ethoxypyrimidin-5-yl)-N1-ethyl-N1-(tetrahydro-2H-pyran-4-yl)benzene-1,2-diamine], the IC50 was < 5 nM.

For the compound `CC[C@@H](CC(=O)O)c1ccc(N(CC2CC2)CC(C)(C)O)c(Nc2ccc(F)cc2)c1` (single isomer, unassigned) [Example 269], the IC50 is < 50 nM.

With `CCN(c1ccc([C@@H](COC)CC(=O)O)cc1Nc1ncc(F)cn1)C1CCOCC1` (single isomer, unassigned) [Example 359], the IC50 was > 50 nM.

As for `CCC(CC(=O)O)c1cc(Nc2ccc(Cl)cc2)c(N(CC)C2CCOCC2)cc1F` (single isomer, unassigned) [Example 856, 3-(5-((4-Chlorophenyl)amino)-4-(ethyl(tetrahydro-2H-pyran-4-yl)amino)-2-fluorophenyl)pentanoic acid], the IC50 was < 5 nM.

On to `CCOc1ncc(Nc2cc(C(CC)CC(=O)O)ccc2N2CCC(C)CC2)cn1` (single isomer, unassigned) [Example 43, 3-(3-((2-ethoxypyrimidin-5-yl)amino)-4-(4-methylpiperidin-1-yl)phenyl)pentanoic acid], for which the concentration for half-maximal inhibition (IC50) was > 50 nM.

In the case of `CCCN(c1ccc([C@H](COC)CC(=O)O)cc1Nc1ccc(C#N)cc1)C1CCOCC1` (single isomer, unassigned) [Example 568], the IC50 was < 5 nM.

Regarding `CCCN(c1ccc(C(COC)CC(=O)O)cc1Nc1ccc(Cl)cc1)C1CCS(=O)(=O)CC1` (single isomer, unassigned) [Example 183, 3-(3-((4-chlorophenyl)amino)-4-((1,1-dioxidotetrahydro-2H-thiopyran-4-yl)(propyl)amino)phenyl)-4-methoxybutanoic acid], the IC50 is < 50 nM.

With `CCC(CC(=O)O)c1ccc(N(CC)C2CCCOC2)c(Nc2cnc(OC)nc2)c1` (single isomer, unassigned) [Example 62, 3-(4-(ethyl(tetrahydro-2H-pyran-3-yl)amino)-3-((2-methoxypyrimidin-5-yl)amino)phenyl)pentanoic acid], the IC50 was < 5 nM.

Turning to `CCN(c1ccc(C(CC)(CC)CC(=O)O)cc1NC(=O)Nc1ccc(C)cc1)C1CCOCC1` [Example 30, 3-Ethyl-3-(4-(ethyl(tetrahydro-2H-pyran-4-yl)amino)-3-(3-(p-tolyl)ureido)phenyl)pentanoic acid], the IC50 was < 50 nM.

As to `CCOc1cnc(Nc2cc([C@H](CC)CC(=O)O)ccc2N(CC)C2CCOCC2)cn1` (single isomer, unassigned) [Example 508], the IC50 is < 5 nM.

For `CCN(c1ccc(C(CC)(CC)CC(=O)O)cc1NC(=O)Nc1ccc(Cl)cc1F)C1CCOCC1` [Example 32, 3-(3-(3-(4-chloro-2-fluorophenyl)ureido)-4-(ethyl(tetrahydro-2H-pyran-4-yl)amino)phenyl)-3-ethylpentanoic acid], the IC50 was < 5 nM.

On to `CCOc1ncc(Nc2cc([C@H](CC)CC(=O)Nc3ncco3)ccc2N(CC)C2CCOCC2)cn1` [Example 1346, (R)-3-(3-((2-Ethoxypyrimidin-5-yl)amino)-4-(ethyl(tetrahydro-2H-pyran-4-yl)amino)phenyl)-N-(oxazol-2-yl)pentanamide], for which the IC50 is < 50 nM.

On to `CCN(c1ccc(C(C)(C)CC(=O)O)cc1Nc1ccc2c(c1)OC(F)(F)O2)C1CCS(=O)(=O)CC1` [Example 179, 3-(3-((2,2-difluorobenzo[d][1,3]dioxol-5-yl)amino)-4-((1,1-dioxidotetrahydro-2H-thiopyran-4-yl)(ethyl)amino)phenyl)-3-methylbutanoic acid], for which the IC50 was < 5 nM.

In the case of `CCN(c1ccc([C@@H](CC(=O)O)C(F)(F)F)cc1NC(=O)Nc1ccc(C#N)cc1)C1CCOCC1` (single isomer, unassigned) [Example 1271], the IC50 was > 50 nM.

As for `CCCN(c1ccc(C(CC)CC(=O)O)cc1NC(=O)Nc1ccc(C)cc1)C1CCOCC1` (single isomer, unassigned) [Example 557 Enantiomer 2, 3-(4-(Propyl(tetrahydro-2H-pyran-4-yl)amino)-3-(3-(p-tolyl)ureido)phenyl)pentanoic acid], the IC50 was < 5 nM.

Turning to `COCC(CC(=O)O)c1ccc(N2CCOC[C@@H]2C(C)C)c(Nc2ccc(C#N)cc2)c1` (single isomer, unassigned) [Example 933], the IC50 was > 50 nM.

For the origin of these results see patent US9790169B2, “IDO inhibitors” (BRISTOL-MYERS SQUIBB COMPANY, priority 2015, dated 2017).
